According to patent US20260078130A1, “NAMPT MODULATORS, PREPARATIONS, AND USES THEREOF” (SIRONAX LTD., priority 2022, published 2026):
Where two headings read alike, the source gives them in different places.

How the values were obtained:
[1] = target: T1, human enzyme NAMPT (full length) (Homo sapiens, UniProt P43490); test: NMN fluorescence biochemical assay (stimulation of NMN synthesis by NAMPT); details: for EC50: concentration giving half-maximal activation, read-out: Enzymatic EC50; for Enzymatic Emax: fold change of maximal activation compared to DMSO
T1 construct: human enzyme NAMPT (full length)
Outline: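 Full-length human NAMPT (100 nM) was preincubated 15 min at 37 °C with compound in 50 mM Tris-HCl pH 7.5, 10 mM MgCl2, 2 mM DTT, then reacted 1 h at 37 °C with 50 μM NAM, 100 μM PRPP, 4 mM ATP (stated solution concentrations). NMN was derivatised with acetophenone/KOH then formic acid and read at Ex/Em 382/445 nm; EC50 and Emax (fold over DMSO) reported.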

[2] = tested on: endogenous NAMPT in U2OS cells; test: Cellular NAD+ modulation assay (NAD/NADH-Glo, U2OS cells); assay type: cell-based; details: Homo sapiens; for maximal fold induction: read-out: Cellular Emax
Outline: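 Endogenous NAMPT stimulation in U2OS cells treated with compound dilution series for 24 h at 37 °C. Cells lysed with DTAB base, acid-treated 15 min at 60 °C, neutralized, NAD+ read by NAD/NADH-Glo luminescence after 40 min at room temperature. EC50 and Emax (fold over DMSO) derived.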

[3] = NMN synthesis by purified human NAMPT (100 nM)
[4] = 24 hours incubation with compound
[5] = NMN fluorescence assay, purified human NAMPT 100 nM
[6] = 24 hours incubation, cellular NAD+

T1 sequence (P43490 whole entry): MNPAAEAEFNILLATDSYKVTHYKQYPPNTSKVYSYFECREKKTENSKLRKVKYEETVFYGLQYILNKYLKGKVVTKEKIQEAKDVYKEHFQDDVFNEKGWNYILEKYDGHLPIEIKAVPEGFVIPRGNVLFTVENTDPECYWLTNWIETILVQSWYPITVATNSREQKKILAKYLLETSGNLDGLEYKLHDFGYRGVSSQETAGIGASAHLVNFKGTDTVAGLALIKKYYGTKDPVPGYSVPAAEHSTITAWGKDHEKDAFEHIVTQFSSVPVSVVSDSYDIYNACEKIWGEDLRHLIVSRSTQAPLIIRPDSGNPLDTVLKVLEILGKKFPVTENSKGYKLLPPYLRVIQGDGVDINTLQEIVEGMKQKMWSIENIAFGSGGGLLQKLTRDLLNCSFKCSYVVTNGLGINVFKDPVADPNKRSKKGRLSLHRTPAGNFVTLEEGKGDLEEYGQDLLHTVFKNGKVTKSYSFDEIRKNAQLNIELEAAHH

CC1c2cc(NC3CC4(COC4)C3)ccc2C(=O)N1Cc1ccc2[nH]c(=O)oc2c1 (centres unmarked) [Compound 149, 6-((5-((2-oxaspiro[3.3]heptan-6-yl)amino)-3-methyl-1-oxoisoindolin-2-yl)methyl)benzo[d]oxazol-2(3H)-one]
EC50 [1, 3]: 0.5 to 5 µM | Enzymatic Emax [1]: B (3≥B>2) | EC50 [2, 4]: 0.5 to 5 µM | maximal fold induction [2, 4]: > 1.5

O=C1c2ccc(N3CCCC3)cc2CN1Cc1ccc2[nH]c(=O)oc2c1 [Compound 300, 6-((1-oxo-5-(pyrrolidin-1-yl)isoindolin-2-yl)methyl)benzo[d]oxazol-2(3H)-one]
EC50 [1, 3]: ≥ 5 µM | Enzymatic Emax [1]: C (2≥C) | EC50 [2, 4]: 5 to 50 µM | maximal fold induction [2, 4]: 1.2 to 1.5

O=C1c2ccccc2C(CC2=CCOCC2)N1Cc1ccc2[nH]c(=O)oc2c1 (centres unmarked) [Compound 225, 6-((1-((3,6-dihydro-2H-pyran-4-yl)methyl)-3-oxoisoindolin-2-yl)methyl)benzo[d]oxazol-2(3H)-one]
EC50 [1, 3]: 0.5 to 5 µM | Enzymatic Emax [1]: A (A>3) | EC50 [2, 4]: 0.5 to 5 µM | maximal fold induction [2, 4]: > 1.5

NC(=O)Nc1ccc(CN2Cc3ccccc3C2=O)cc1 [Compound 293, 1-(4-((1-oxoisoindolin-2-yl)methyl)phenyl)urea]
EC50 [1, 3]: < 0.5 µM | Enzymatic Emax [1]: C (2≥C) | EC50 [2, 4]: 5 to 50 µM | maximal fold induction [2, 4]: > 1.5

Cn1ncc(Cl)c1CC1c2ccccc2C(=O)N1CC1CC(C(N)=O)C1 (centres unmarked) [Compound 562, 3-((1-((4-chloro-1-methyl-1H-pyrazol-5-yl)methyl)-3-oxoisoindolin-2-yl)methyl)cyclobutane-1-carboxamide]
EC50 [1, 5]: 0.5 to 5 µM | Enzymatic Emax [1]: B (3≥B>2) | EC50 [2, 6]: < 0.5 µM | maximal fold induction [2, 6]: 1.2 to 1.5

O=C1c2ccccc2C(Cc2ncccc2Br)N1CC#Cc1cn[nH]n1 (centres unmarked) [Compound 417, 2-(3-(2H-1,2,3-triazol-4-yl)prop-2-yn-1-yl)-3-((3-bromopyridin-2-yl)methyl) isoindolin-1-one]
EC50 [1, 5]: < 0.5 µM | Enzymatic Emax [1]: B (3≥B>2) | EC50 [2, 6]: < 0.5 µM | maximal fold induction [2, 6]: > 1.5

N#Cc1ccccc1CC1c2ccccc2C(=O)N1Cc1ccc(O)c(F)c1 (centres unmarked) [Compound 195, 2-((2-(3-fluoro-4-hydroxybenzyl)-3-oxoisoindolin-1-yl)methyl)benzonitrile]
EC50 [1, 3]: < 0.5 µM | Enzymatic Emax [1]: B (3≥B>2) | EC50 [2, 4]: < 0.5 µM | maximal fold induction [2, 4]: 1.2 to 1.5

Cn1ncc(Cl)c1CC1c2cc(C3CC3)ccc2C(=O)N1CC1CC2(CNC(=O)O2)C1 (centres unmarked) [Compound 311, 2-((3-((4-chloro-1-methyl-1H-pyrazol-5-yl)methyl)-5-cyclopropyl-1-oxoisoindolin-2-yl)methyl)-5-oxa-7-azaspiro[3.4]octan-6-one]
EC50 [1, 3]: 0.5 to 5 µM | Enzymatic Emax [1]: B (3≥B>2) | EC50 [2, 4]: < 0.5 µM | maximal fold induction [2, 4]: > 1.5

O=C1c2ccccc2C(=O)N1Cc1ccc(O)cc1 [Compound 11, 2-(4-hydroxybenzyl)isoindoline-1,3-dione]
EC50 [1, 3]: ≥ 5 µM | Enzymatic Emax [1]: B (3≥B>2) | EC50 [2, 4]: 5 to 50 µM | maximal fold induction [2, 4]: 1.2 to 1.5

COc1ccc(CN2C(=O)c3ccccc3C2Cc2ncccc2Br)cn1 (centres unmarked) [Compound 513, 3-((3-bromopyridin-2-yl)methyl)-2-((6-methoxypyridin-3-yl)methyl)isoindolin-1-one]
EC50 [1, 5]: 0.5 to 5 µM | Enzymatic Emax [1]: B (3≥B>2) | EC50 [2, 6]: 0.5 to 5 µM | maximal fold induction [2, 6]: > 1.5

N#Cc1nccc(Cl)c1CC1c2ccccc2C(=O)N1Cc1ccc2[nH]nnc2c1 (centres unmarked) [Compound 228, 3-((2-((1H-benzo[d][1,2,3]triazol-5-yl)methyl)-3-oxoisoindolin-1-yl)methyl)-4-chloropicolinonitrile]
EC50 [1, 3]: < 0.5 µM | Enzymatic Emax [1]: B (3≥B>2) | EC50 [2, 4]: < 0.5 µM | maximal fold induction [2, 4]: > 1.5

Cn1c2ccccc2c(=O)n1Cc1ccc2[nH]c(=O)oc2c1 [Compound 46, 6-((1-methyl-3-oxo-1,3-dihydro-2H-indazol-2-yl)methyl)benzo[d]oxazol-2(3H)-one]
EC50 [1, 3]: ≥ 5 µM | Enzymatic Emax [1]: B (3≥B>2) | EC50 [2, 4]: 5 to 50 µM | maximal fold induction [2, 4]: > 1.5

O=C1c2ccc(N3CCOCC3)cc2C(Cc2ccccc2)N1Cc1ccc2[nH]c(=O)oc2c1 (centres unmarked) [Compound 97, 6-((3-benzyl-5-morpholino-1-oxoisoindolin-2-yl)methyl)benzo[d]oxazol-2(3H)-one]
EC50 [1, 3]: 0.5 to 5 µM | Enzymatic Emax [1]: A (A>3) | EC50 [2, 4]: 0.5 to 5 µM | maximal fold induction [2, 4]: > 1.5

Cn1ncc(Cl)c1CC1c2ccccc2S(=O)(=O)N1CC1CC2(CNC(=O)O2)C1 (centres unmarked) [Compound 540, 2-((3-((4-chloro-1-methyl-1H-pyrazol-5-yl)methyl)-1,1-dioxidobenzo[d]isothiazol-2(3H)-yl)methyl)-5-oxa-7-azaspiro[3.4]octan-6-one]
EC50 [1, 5]: < 0.5 µM | Enzymatic Emax [1]: B (3≥B>2) | EC50 [2, 6]: < 0.5 µM | maximal fold induction [2, 6]: > 1.5

O=C1c2ccccc2C(Cc2nn(C3COC3)cc2Cl)N1Cc1ccc2[nH]nnc2c1 (centres unmarked) [Compound 318, 2-((1H-benzo[d][1,2,3]triazol-5-yl)methyl)-3-((4-chloro-1-(oxetan-3-yl)-1H-pyrazol-3-yl)methyl)isoindolin-1-one]
EC50 [1, 3]: < 0.5 µM | Enzymatic Emax [1]: A (A>3) | EC50 [2, 4]: < 0.5 µM | maximal fold induction [2, 4]: > 1.5

Cn1ncc(Cl)c1CC1c2cc(OC3CNC3)ccc2C(=O)N1Cc1ccc2[nH]nnc2c1 (centres unmarked) [Compound 437, 2-((1H-benzo[d][1,2,3]triazol-5-yl)methyl)-5-(azetidin-3-yloxy)-3-((4-chloro-1-methyl-1H-pyrazol-5-yl)methyl)isoindolin-1-one]
EC50 [1, 5]: < 0.5 µM | Enzymatic Emax [1]: A (A>3) | EC50 [2, 6]: 5 to 50 µM | maximal fold induction [2, 6]: > 1.5

COc1ccc2c(c1)CN(Cc1ccc3[nH]c(=O)oc3c1)C2=O [Compound 49, 6-((5-methoxy-1-oxoisoindolin-2-yl)methyl)benzo[d]oxazol-2(3H)-one]
EC50 [1, 3]: ≥ 5 µM | Enzymatic Emax [1]: B (3≥B>2) | EC50 [2, 4]: 5 to 50 µM | maximal fold induction [2, 4]: > 1.5

Cn1ncc(Cl)c1C[C@H]1c2ccccc2C(=O)N1C[C@H]1C[C@]2(CNC(=O)O2)C1 [Compound 406, (2s,4R)-2-(((S)-1-((4-chloro-1-methyl-1H-pyrazol-5-yl)methyl)-3-oxoisoindolin-2-yl)methyl)-5-oxa-7-azaspiro[3.4]octan-6-one]
EC50 [1, 5]: < 0.5 µM | Enzymatic Emax [1]: B (3≥B>2) | EC50 [2, 6]: < 0.5 µM | maximal fold induction [2, 6]: > 1.5

COCCn1cc(Cl)c(CC2c3ccccc3C(=O)N2Cc2ccc3[nH]c(=O)oc3c2)n1 (centres unmarked) [Compound 277, 6-((1-((4-chloro-1-(2-methoxyethyl)-1H-pyrazol-3-yl)methyl)-3-oxoisoindolin-2-yl)methyl) benzo[d]oxazol-2(3H)-one]
EC50 [1, 3]: 0.5 to 5 µM | Enzymatic Emax [1]: A (A>3) | EC50 [2, 4]: < 0.5 µM | maximal fold induction [2, 4]: > 1.5

N#CCn1cc(Cl)c(CC2c3ccccc3C(=O)N2Cc2ccc3[nH]nnc3c2)n1 (centres unmarked) [Compound 410, 2-(3-((2-((1H-benzo[d][1,2,3]triazol-5-yl)methyl)-3-oxoisoindolin-1-yl)methyl)-4-chloro-1H-pyrazol-1-yl)acetonitrile]
EC50 [1, 5]: < 0.5 µM | Enzymatic Emax [1]: B (3≥B>2) | EC50 [2, 6]: 0.5 to 5 µM | maximal fold induction [2, 6]: > 1.5

O=C1c2cccc(Br)c2C(=O)N1Cc1ccc(O)cc1 [Compound 296, 4-bromo-2-(4-hydroxybenzyl)isoindoline-1,3-dione]
EC50 [1, 3]: 0.5 to 5 µM | Enzymatic Emax [1]: C (2≥C) | EC50 [2, 4]: 0.5 to 5 µM | maximal fold induction [2, 4]: 1.2 to 1.5

Cn1ncc(Cl)c1CC1c2ccccc2C(=O)N1C/C=C/c1nn[nH]c1F (centres unmarked) [Compound 516, (E)-3-((4-chloro-1-methyl-1H-pyrazol-5-yl)methyl)-2-(3-(5-fluoro-1H-1,2,3-triazol-4-yl)allyl)isoindolin-1-one]
EC50 [1, 5]: < 0.5 µM | Enzymatic Emax [1]: B (3≥B>2) | EC50 [2, 6]: < 0.5 µM | maximal fold induction [2, 6]: > 1.5

Cc1ccc2c(c1)C(=O)N(Cc1ccc(O)cc1)C2=O [Compound 14, 2-(4-hydroxybenzyl)-5-methylisoindoline-1,3-dione]
EC50 [1, 3]: 0.5 to 5 µM | Enzymatic Emax [1]: B (3≥B>2) | EC50 [2, 4]: 0.5 to 5 µM | maximal fold induction [2, 4]: 1.2 to 1.5

Cc1ccnc(C#N)c1CC1c2cc(C3CC3)ccc2C(=O)N1Cc1ccc2[nH]nnc2c1 (centres unmarked) [Compound 360, 3-((2-((1H-benzo[d][1,2,3]triazol-5-yl)methyl)-6-cyclopropyl-3-oxoisoindolin-1-yl)methyl)-4-methylpicolinonitrile]
EC50 [1, 5]: < 0.5 µM | Enzymatic Emax [1]: B (3≥B>2) | EC50 [2, 6]: < 0.5 µM | maximal fold induction [2, 6]: > 1.5

Cn1ncc(Cl)c1CC1c2ccccc2C(=S)N1CC1CC2(CNC(=O)O2)C1 (centres unmarked) [Compound 482, 2-((1-((4-chloro-1-methyl-1H-pyrazol-5-yl)methyl)-3-thioxoisoindolin-2-yl)methyl)-5-oxa-7-azaspiro[3.4]octan-6-one]
EC50 [1, 5]: < 0.5 µM | Enzymatic Emax [1]: B (3≥B>2) | EC50 [2, 6]: < 0.5 µM | maximal fold induction [2, 6]: > 1.5

N#Cc1cncc(C#N)c1CC1c2ccccc2C(=O)N1Cc1ccc2[nH]c(=O)oc2c1 (centres unmarked) [Compound 283, 4-((3-oxo-2-((2-oxo-2,3-dihydrobenzo[d]oxazol-6-yl)methyl)isoindolin-1-yl)methyl) pyridine-3,5-dicarbonitrile]
EC50 [1, 3]: < 0.5 µM | Enzymatic Emax [1]: A (A>3) | EC50 [2, 4]: < 0.5 µM | maximal fold induction [2, 4]: 1.2 to 1.5
